Results from patent US20100234385A1 (Kaneka Corporation, priority 2006, published 2010).

How the values were obtained:
melanocytes = test: Inhibitory effect on melanocytes in vitro; format: cell-based
[1] = Sawabe et al. 2004, cited from earlier work
[2] = BH4 concentration in the brain after oral administration for 3 consecutive days to hph-1 mice; conditions: 5 mg/kg oral, 3 consecutive days at 24-hour intervals, 2.5 hours after final dosing, versus non-dose group
Protocol: The mice were biopsied 2.5 hours after the final dosing, their brains were excised and BH4 levels were quantified in the same manner as Example 1.

With “6-(L-erythro-1,2-dihydroxypropyl)-pterin or 7-(L-erythro-1,2-dihydroxypropyl)-pterin [biopterin]” the “effects on melanocytes in vitro” value (melanocytes) was “inhibitory effects”.

For `C[C@H](O)[C@H](O)[C@H]1CNc2nc(N)[nH]c(=O)c2N1` [BH4, L-erythro-5,6,7,8-tetrahydrobiopterin], the “time of sharp peak of BH4 after administration” value [1] is given as 0.5 to 1 h, the “time until BH4 concentration returns to the original level” value ([1]; after administration of BH4) is given as “about 4 hours” and the “intracerebral BH4 concentrations” value [2] is given as “changes are not observed”.
